Results on 44 compounds are retold here after patent US9902728B2, “Pyrrolo and pyrazolopyrimidines as ubiquitin-specific protease 7 inhibitors” (Forma Therapeutics, Inc., priority 2014, dated 2018).

In one experiment the target is T1, USP7 (Homo sapiens, UniProt Q93009).
T1 construct: USP7, construct USP7 (208-1102) 6*His, Viva Biotech; 6xHis (C); purchased Viva Biotech
T1 sequence (Q93009 208-1102): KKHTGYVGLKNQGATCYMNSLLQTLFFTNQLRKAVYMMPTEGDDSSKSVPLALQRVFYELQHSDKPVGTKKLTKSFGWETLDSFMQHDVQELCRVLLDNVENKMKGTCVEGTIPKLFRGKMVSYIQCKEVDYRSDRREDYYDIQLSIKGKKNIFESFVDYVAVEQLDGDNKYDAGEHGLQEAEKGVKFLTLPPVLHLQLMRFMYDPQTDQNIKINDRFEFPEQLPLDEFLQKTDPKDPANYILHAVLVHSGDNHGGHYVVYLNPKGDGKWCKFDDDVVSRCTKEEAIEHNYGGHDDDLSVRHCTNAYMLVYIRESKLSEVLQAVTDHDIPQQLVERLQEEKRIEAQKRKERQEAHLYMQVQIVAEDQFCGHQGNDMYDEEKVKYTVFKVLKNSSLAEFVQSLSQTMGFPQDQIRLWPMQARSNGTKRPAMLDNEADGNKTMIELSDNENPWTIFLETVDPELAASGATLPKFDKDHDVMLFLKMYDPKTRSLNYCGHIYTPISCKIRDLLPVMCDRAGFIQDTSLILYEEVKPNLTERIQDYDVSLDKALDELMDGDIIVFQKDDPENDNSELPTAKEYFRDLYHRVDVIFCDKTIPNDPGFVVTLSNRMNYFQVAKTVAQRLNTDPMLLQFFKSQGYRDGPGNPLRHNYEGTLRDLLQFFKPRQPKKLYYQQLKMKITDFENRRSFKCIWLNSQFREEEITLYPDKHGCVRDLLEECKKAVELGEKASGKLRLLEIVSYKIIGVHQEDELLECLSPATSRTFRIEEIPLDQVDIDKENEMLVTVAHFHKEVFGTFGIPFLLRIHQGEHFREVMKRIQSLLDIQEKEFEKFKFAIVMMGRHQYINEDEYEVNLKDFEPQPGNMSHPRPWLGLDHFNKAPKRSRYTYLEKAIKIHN
Nature of the experiment: USP7 Assay A (Ubitquin-Rhodamine 110 Assay). The format is biochemical. The following applies: USP7 activity in USP7 assay A and B (table does not say which assay per compound); read-out: USP7_IC50. The gist of the method:
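Ub-Rh110 cleavage in 20 mM Tris-HCl pH 8.0 with 1 mM GSH, 0.03% BGG, 0.01% Triton X-100; compound preincubated with enzyme 30 min before substrate.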
For the compound `O=C(c1ccc(N2CCN3CCCC3C2)cc1)N1CCC(O)(Cn2cnc3c(cnn3-c3ccc(F)cc3)c2=O)CC1` (centres unmarked) [Compound I-487], the IC50 is 1000 to 10000 nM. Still for that read-out and setting: for `Cc1cnn(-c2ccc(-n3ncc4c(=O)n(CC5(O)CCN(C(=O)c6cnc(C)o6)CC5)cnc43)cc2)c1` [Compound I-488] the value was below 200 nM; for `CC1(C(=O)N2CCC(O)(Cn3cnc4c(cnn4-c4ccc(-c5cnn(C(F)F)c5)cc4)c3=O)CC2)CC1` [Compound I-489], 200 to 1000 nM. As to `CC1(C(=O)N2CCC(O)(Cn3cnc4c(cnn4-c4ccc(N5CCC6(CC5)CC(F)(F)C6)cc4)c3=O)CC2)CC1` [Compound I-490], the IC50 is 200 to 1000 nM.

Take `O=C(c1ccnn1Cc1ccccc1)N1CCC(O)(Cn2cnc3c(cnn3-c3ccc(F)cc3)c2=O)CC1` [Compound I-541]: the IC50 lay in the range of 200 to 1000 nM. `O=C(C[C@@H](C(F)F)n1ccc(F)n1)N1CCC(O)(Cn2cnc3c(cnn3-c3ccc(F)cc3)c2=O)CC1` [Compound I-542]: the IC50 is below 200 nM.

On to `O=C(C[C@H](C(F)F)n1ccc(F)n1)N1CCC(O)(Cn2cnc3c(cnn3-c3ccc(F)cc3)c2=O)CC1` [Compound I-543], for which the IC50 is 200 to 1000 nM.

As for `O=C(C1CCC(Oc2ccccn2)CC1)N1CCC(O)(Cn2cnc3c(cnn3-c3ccc(F)cc3)c2=O)CC1` (centres unmarked) [Compound I-544], the IC50 lay within 1000 to 10000 nM. Same read-out and setting: to `O=C(C1CCC(Oc2ccccn2)CC1)N1CCC(O)(Cn2cnc3c(cnn3-c3ccc(F)cc3)c2=O)CC1` (centres unmarked) [Compound I-545] belongs 200 to 1000 nM.

Consider `O=C(C1CCC(Oc2ccccn2)CC1)N1CCC(O)(Cn2cnc3c(cnn3-c3ccc(F)cc3)c2=O)CC1` (centres unmarked) [Compound I-546], for which the IC50 lay within 200 to 1000 nM.

On to `O=C(c1ccc(Oc2ccccn2)cn1)N1CCC(O)(Cn2cnc3c(cnn3-c3ccc(F)cc3)c2=O)CC1` [Compound I-547], for which the IC50 was 1000 to 10000 nM.

Take `O=C(C1CCC(n2cccn2)CC1)N1CCC(O)(Cn2cnc3c(cnn3-c3ccc(F)cc3)c2=O)CC1` (centres unmarked) [Compound I-548]: the IC50 was 1000 to 10000 nM. Same read-out and setting: for `O=C(C1CCC(n2cccn2)CC1)N1CCC(O)(Cn2cnc3c(cnn3-c3ccc(F)cc3)c2=O)CC1` (centres unmarked) [Compound I-549] the value was 1000 to 10000 nM.

The same experiment, now with this note: USP7 assay A and B (table does not say which assay per compound); read-out: USP7_IC50.
Regarding `CN(C)C(=O)Nc1ccc(-n2ncc3c(=O)n(CC4(O)CCN(C(=O)C5CC5)CC4)cnc32)cc1` [Compound I-492], the IC50 was in the range of 1000 to 10000 nM. In the case of `O=C(C1CC1)N1CCC(O)(Cn2cnc3c(cnn3-c3cccc(N4CCNCC4)c3)c2=O)CC1` [Compound I-498], the IC50 was below 200 nM.

On to `O=C(C1CC1)N1CCC(O)(Cn2cnc3c(cnn3-c3ccc(N4CCNCC4)cc3)c2=O)CC1` [Compound I-499], for which the IC50 fell in the range of 200 to 1000 nM. Regarding `CN(C)C(=O)N1CCC(O)(Cn2cnc3c(cnn3-c3ccc(Oc4ccccc4)cc3)c2=O)CC1` [Compound I-500], the IC50 was above 10000 nM. In the case of `CNS(=O)(=O)Nc1ccc(-n2ncc3c(=O)n(CC4(O)CCN(C(=O)C5CC5)CC4)cnc32)cc1` [Compound I-504, 5-[(1-Cyclopropanecarbonyl-4-hydroxypiperidin-4-yl)methyl]-1-{4-[(methylsulfamoyl)amino]phenyl}-1H,4H,5H-pyrazolo[3,4-d]pyrimidin-4-one], the IC50 lay in the range of 1000 to 10000 nM. `CN(C)S(=O)(=O)Nc1ccc(-n2ncc3c(=O)n(CC4(O)CCN(C(=O)C5CC5)CC4)cnc32)cc1` [Compound I-505]: the IC50 was 1000 to 10000 nM. As to `CNC(=O)Nc1ccc(-n2ncc3c(=O)n(CC4(O)CCN(C(=O)C5CC5)CC4)cnc32)cc1` [Compound I-506], the IC50 fell in the range of 1000 to 10000 nM.

Consider `CNC(=O)Nc1cccc(-n2ncc3c(=O)n(CC4(O)CCN(C(=O)C5CC5)CC4)cnc32)c1` [Compound I-507], for which the IC50 is 1000 to 10000 nM.

For `CN(C)C(=O)N1CCC(O)(Cn2cnc3c(cnn3-c3ccc(N4CCC5(CCNCC5)CC4)cc3)c2=O)CC1` [Compound I-508], the IC50 fell in the range of 200 to 1000 nM. Same read-out and setting: to `O=C(c1cccc(CN2CCCC2)c1)N1CCC(O)(Cn2cnc3c(cnn3-c3ccc(F)cc3)c2=O)CC1` [Compound I-510] belongs above 10000 nM; to `CC(CC(=O)N1CCC(O)(Cn2cnc3c(cnn3-c3ccc(F)cc3)c2=O)CC1)n1cccn1` (centres unmarked) [Compound I-513], 200 to 1000 nM; to `C[C@@H](CC(=O)N1CCC(O)(Cn2cnc3c(cnn3-c3ccc(F)cc3)c2=O)CC1)n1cccn1` [Compound I-514], 200 to 1000 nM. As for `C[C@H](CC(=O)N1CCC(O)(Cn2cnc3c(cnn3-c3ccc(F)cc3)c2=O)CC1)n1cccn1` [Compound I-515], the IC50 is 1000 to 10000 nM. Take `O=C(C[C@H](C(F)F)n1cccn1)N1CCC(O)(Cn2cnc3c(cnn3-c3ccc(F)cc3)c2=O)CC1` [Compound I-517]: the IC50 fell in the range of 1000 to 10000 nM. Take `O=C(C[C@@H](C(F)F)n1cccn1)N1CCC(O)(Cn2cnc3c(cnn3-c3ccc(F)cc3)c2=O)CC1` [Compound I-518]: the IC50 was below 200 nM.

As for `C[C@H](CC(=O)N1CCC(O)(Cn2cnc3c(cnn3-c3ccc(F)cc3)c2=O)CC1)n1cc2c(n1)CCC2` [Compound I-520], the IC50 was above 10000 nM. For `C[C@@H](CC(=O)N1CCC(O)(Cn2cnc3c(cnn3-c3ccc(F)cc3)c2=O)CC1)n1ncc2c1CCC2` [Compound I-521], the IC50 was above 10000 nM.

Take `C[C@H](CC(=O)N1CCC(O)(Cn2cnc3c(cnn3-c3ccc(F)cc3)c2=O)CC1)n1ncc2c1CCC2` [Compound I-522]: the IC50 is above 10000 nM. `CC(CC(=O)N1CCC(O)(Cn2cnc3c(cnn3-c3ccc(F)cc3)c2=O)CC1)N1CC2CCCC2C1` (centres unmarked) [Compound I-523]: the IC50 is above 10000 nM.

Regarding `C[C@@H](CC(=O)N1CCC(O)(Cn2cnc3c(cnn3-c3ccc(F)cc3)c2=O)CC1)N1CC2CCCC2C1` (some centres unmarked) [Compound I-524], the IC50 was 1000 to 10000 nM.

Regarding `C[C@H](CC(=O)N1CCC(O)(Cn2cnc3c(cnn3-c3ccc(F)cc3)c2=O)CC1)N1CC2CCCC2C1` (some centres unmarked) [Compound I-525], the IC50 is above 10000 nM.

In the case of `CC(O)(c1ccc(C(=O)N2CCC(O)(Cn3cnc4c(cnn4-c4ccc(F)cc4)c3=O)CC2)cc1)C(F)(F)F` (centres unmarked) [Compound I-526], the IC50 is 1000 to 10000 nM. As to `C[C@@](O)(c1ccc(C(=O)N2CCC(O)(Cn3cnc4c(cnn4-c4ccc(F)cc4)c3=O)CC2)cc1)C(F)(F)F` [Compound I-527], the IC50 lay in the range of 1000 to 10000 nM. On the same count and under the same terms, to `O=C(c1ccc(CN2CCCC2)cc1)N1CCC(O)(Cn2cnc3c(cnn3-c3ccc(F)cc3)c2=O)CC1` [Compound I-529] belongs 1000 to 10000 nM. For `Cc1ncc(C(=O)N2CCC(O)(Cn3cnc4c(cnn4-c4ccc(F)cc4)c3=O)CC2)o1` [Compound I-531], the IC50 fell in the range of 1000 to 10000 nM. `CN1CCC(Oc2ccc(C(=O)N3CCC(O)(Cn4cnc5c(cnn5-c5ccc(F)cc5)c4=O)CC3)cc2)CC1` [Compound I-533]: the IC50 lay within 1000 to 10000 nM.

Take `O=C(c1ccc(-n2cccn2)cc1)N1CCC(O)(Cn2cnc3c(cnn3-c3ccc(F)cc3)c2=O)CC1` [Compound I-535]: the IC50 was 200 to 1000 nM. Regarding `O=C(c1cnc(N2CCCCC2)o1)N1CCC(O)(Cn2cnc3c(cnn3-c3ccc(F)cc3)c2=O)CC1` [Compound I-536], the IC50 lay in the range of 1000 to 10000 nM.

On to `CN1CCN(c2ccc(C(=O)N3CCC(O)(Cn4cnc5c(cnn5-c5ccc(F)cc5)c4=O)CC3)cc2F)CC1` [Compound I-537], for which the IC50 is 1000 to 10000 nM. As to `O=C(c1ccc(Oc2ccccn2)cc1)N1CCC(O)(Cn2cnc3c(cnn3-c3ccc(F)cc3)c2=O)CC1` [Compound I-538], the IC50 lay within 1000 to 10000 nM. `O=C(c1ccc(Oc2ncccn2)cc1)N1CCC(O)(Cn2cnc3c(cnn3-c3ccc(F)cc3)c2=O)CC1` [Compound I-539]: the IC50 was 1000 to 10000 nM.
